Data from patent US20090143468A1, “PET FOOD COMPOSITIONS AND METHODS” (priority 2004, published 2009).

How the values were obtained:
[1] = test system: osteoblast cell line MC3T3-E1; assay: Fatty acid compositional analysis of osteoblasts; type: cell-based
Procedure: (§1) Experiments are conducted to determine how SDA treatment of osteoblast-like cells in culture influence the polyunsaturated fatty acid (PUFA) composition. The osteoblast cell line MC3T3-E1 is cultured in growth medium (GM) consisting of DMEM supplemented with 10% fetal bovine serum (FBS), ascorbic acid, β-glycerol-phosphate, and 1% antimicrobial solution. The cells are plated in 24-well plates at a density of 1.2×10^4 cells per ml for 3 days until confluent. Once confluent, corresponding to the initialization of the osteoblastic phenotype, the medium is either changed for SDA or […] (LNA) treatment or cultured further in GM until subjected to the various treatments. At the end of the 3 day fatty acid treatment period, cultures are exposed to agents that induce COX-2 expression. The two agents utilized are forskolin (FSK) and interleukin-1 (IL-1). These agents are selected on the basis of their respective actions on the COX-2 gene. Forskolin, an activator of adenylate cyclase, increases cyclic-AMP (cAMP) concentrations. Interleukin-1, itself a bone resorption agent binding to its receptor on the cellular membrane, launches a cascade resulting in the activation of the transcription factor nuclear-factor κ-B (NFκB). Cyclic-AMP and NFκB both activate the expression of the COX-2 gene. Cyclic-AMP activates the expression of the COX-2 gene via the cAMP-response element binding protein (CREBP), which binds to the cAMP response element (CRE) in the COX-2 promoter. The COX-2 promoter also contains an NFκB binding element.
Fatty Acid Compositional Analysis of Osteoblasts. Osteoblast cells exposed to the PUFA treatments (SDA and LNA) are subjected to a gas chromotographic analysis of the FAME from extracted lipids of washed cells.

other cell cultures = assay: Omega-3 fatty acid concentrations in other cell cultures; type: cell-based; details: compared with linolenic acid (18:3n-3)
[2] = test system: PGE2 production in osteoblasts; assay: PGE2 formation in osteoblasts (enzyme immunoassay); type: cell-based
Procedure: as §1, with “Interleukin-1, itself a bone resorption agent binding to its receptor on the cellular membrane, launches a cascade resulting in the activation of the transcription factor nuclear-factor κ-B (NFκB). Cyclic-AMP and NFκB both activate the expression of the COX-2 gene. Cyclic-AMP activates the expression of the COX-2 gene via the cAMP-response element binding protein (CREBP), which binds to the cAMP response element (CRE) in the COX-2 promoter. The COX-2 promoter also contains an NFκB binding element.” left out
Western Blot. […] Optical density is determined using Optimus image analyzing software (version 6.1). […]
PGE2 Formation. In the experiments, already detailed in the section on Western blotting, PGE2 levels in the medium of induced and non-induced cells are determined using an enzyme immunoassay kit (Cayman Chemical, Ann Arbor, Mich.).

[3] = test system: Alkaline phosphatase (ALP) activity in osteoblast cells MC3T3-E1; assay: Alkaline phosphatase (ALP) activity, method of Lowry; type: cell-based; details: all time points evaluated; relative to linolenic acid
Procedure: as §1, with “Cyclic-AMP activates the expression of the COX-2 gene via the cAMP-response element binding protein (CREBP), which binds to the cAMP response element (CRE) in the COX-2 promoter. The COX-2 promoter also contains an NFκB binding element.” left out
Enzyme activity: Alkaline phosphatase (ALP) activity is determined by the method of Lowry.

[4] = Beagle feeding study, diets supplemented with SDA or linolenic acid; type: in vivo, beagles; details: dogs, low essential fatty acid diet 90 days
Source text: Experiments are also designed to evaluate the effect of SDA on the pet, such as a dog or cat. As an example, beagles are provided with a low essential fatty acid diet for a period of 90 days. Diets supplemented with SDA or linolenic acid are provided for the subsequent 30 days.

[5] = then supplemented diet 30 days, compared to linolenic acid diet

CC/C=C\C/C=C\C/C=C\C/C=C\CCCCC(=O)O [SDA, 6Z, 9Z, 12Z, 15Z-octadecatetraenoic acid]
concentrations of total omega-3 fatty acid in osteoblasts ([1]; SDA at increasing treatment levels): increased concentrations
22:5n-3 in osteoblasts ([1]; SDA treatment of osteoblasts): particularly elevates
EPA in osteoblasts ([1]; SDA treatment of osteoblasts): particularly elevates
altering the concentrations of omega-3 fatty acid (other cell cultures): more effective
PGE2 production in osteoblasts [2]: attenuate PGE2 production
activity of alkaline phosphatase [3]: highest activity
arachidonic acid in plasma and liver ([4]; then SDA supplemented diet 30 days): trend of decreased arachidonic acid
concentrations of 22:5n-3 in red blood cell membranes, plasma, and liver tissue [4, 5]: elevated concentrations
concentrations of EPA in red blood cell membranes, plasma, and liver tissue [4, 5]: elevated concentrations
